Results reported in ChEMBL document CHEMBL1201862, “PubChem BioAssay data set” (2004).
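Test compounds were applied to cells in 96-well plates for 48 hours at 5 doses. GI50: concentration for 50% inhibition of growth.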 Activity calls are given as the source filed them. Rule as the data show it: active = GI50 up to about 1.1 µM and inactive = higher.

What was measured:
Assay in all cases: inhibition of tumour cell growth, NCI panel, 48 h
UO-31 = system: UO-31
SNB-75 = system: SNB-75
IGROV-1 = system: IGROV-1
SN12C = system: SN12C
MDA-MB-231 = system: MDA-MB-231
SF-295 = system: SF-295
HOP-62 = system: HOP-62
SR = system: SR
NCI-H23 = system: NCI-H23
OVCAR-8 = system: OVCAR-8
HCC 2998 = system: HCC 2998
K562 = system: K562
MCF7 = system: MCF7
SK-MEL-5 = system: SK-MEL-5
MDA-MB-435 = system: MDA-MB-435
UACC-62 = system: UACC-62
COLO 205 = system: COLO 205
CAKI-1 = system: CAKI-1
EKVX = system: EKVX
T47D = system: T47D
OVCAR-3 = system: OVCAR-3
U-251 = system: U-251
ACHN = system: ACHN
M14 = system: M14
LOX IMVI = system: LOX IMVI
RPMI-8226 = system: RPMI-8226
CCRF-CEM = system: CCRF-CEM
HCT-116 = system: HCT-116
A498 = system: A498
UACC-257 = system: UACC-257
PC-3 = system: PC-3
DU-145 = system: DU-145
MOLT-4 = system: MOLT-4
SNB-19 = system: SNB-19
BT-549 = system: BT-549
HCT-15 = system: HCT-15
NCI-H226 = system: NCI-H226
SF-539 = system: SF-539
HOP-92 = system: HOP-92
NCI-H460 = system: NCI-H460
NCI/ADR-RES = system: NCI/ADR-RES
SK-MEL-28 = system: SK-MEL-28
OVCAR-4 = system: OVCAR-4
SK-MEL-2 = system: SK-MEL-2
SW-620 = system: SW-620
OVCAR-5 = system: OVCAR-5
786-0 = system: 786-0
RXF 393 = system: RXF 393
A549 = system: A549
KM12 = system: KM12
MDA-N = system: MDA-N
SK-OV-3 = system: SK-OV-3
SF-268 = system: SF-268
TK-10 = system: TK-10
NCI-H522 = system: NCI-H522
Malme-3M = system: Malme-3M
HT-29 = system: HT-29
HL-60 = system: HL-60

**Q.** With `CCOC(=O)c1cn(C)c(=S)n2c1nc1ccccc12` as the compound, how does the GI50 (UO-31) read?
**A.** The GI50 was 4.73 µM (inactive).

**Q.** What about the GI50 (SNB-75) of the same compound?
**A.** Its GI50 is > 100 µM (inactive).

**Q.** What about the GI50 (IGROV-1) of the same compound?
**A.** The GI50 was 34.3 µM (inactive).

**Q.** And the GI50 (SN12C)?
**A.** Its GI50 is > 100 µM (inactive).

**Q.** And the GI50 (MDA-MB-231)?
**A.** The GI50 was 91.8 µM (inactive).

**Q.** And the GI50 (SF-295)?
**A.** The GI50 was 59.4 µM (inactive).

**Q.** And the GI50 (HOP-62)?
**A.** Its GI50 is > 100 µM (inactive).

**Q.** And the GI50 (SR)?
**A.** The GI50 was 62.5 µM (inactive).

**Q.** What about the GI50 (NCI-H23) of the same compound?
**A.** The GI50 was 91.8 µM (inactive).

**Q.** And the GI50 (OVCAR-8)?
**A.** Its GI50 is 30.8 µM (inactive).

**Q.** What about the GI50 (HCC 2998) of the same compound?
**A.** The GI50 was > 100 µM (inactive).

**Q.** And the GI50 (K562)?
**A.** Its GI50 is > 100 µM (inactive).

**Q.** And the GI50 (MCF7)?
**A.** Its GI50 is 44.6 µM (inactive).

**Q.** And the GI50 (SK-MEL-5)?
**A.** Its GI50 is 86.7 µM (inactive).

**Q.** And the GI50 (MDA-MB-435)?
**A.** Its GI50 is > 100 µM (inactive).

**Q.** What about the GI50 (UACC-62) of the same compound?
**A.** The GI50 was 21.8 µM (inactive).

**Q.** And the GI50 (COLO 205)?
**A.** The GI50 was > 100 µM (inactive).

**Q.** And the GI50 (CAKI-1)?
**A.** The GI50 was 91.4 µM (inactive).

**Q.** And the GI50 (EKVX)?
**A.** The GI50 was > 100 µM (inactive).

**Q.** And the GI50 (T47D)?
**A.** Its GI50 is > 100 µM (inactive).

**Q.** What about the GI50 (OVCAR-3) of the same compound?
**A.** The GI50 was > 100 µM (inactive).

**Q.** What about the GI50 (U-251) of the same compound?
**A.** The GI50 was > 100 µM (inactive).

**Q.** What about the GI50 (ACHN) of the same compound?
**A.** Its GI50 is 49.1 µM (inactive).

**Q.** And the GI50 (M14)?
**A.** The GI50 was > 100 µM (inactive).

**Q.** And the GI50 (LOX IMVI)?
**A.** Its GI50 is 56 µM (inactive).

**Q.** What about the GI50 (RPMI-8226) of the same compound?
**A.** Its GI50 is 30.9 µM (inactive).

**Q.** What about the GI50 (CCRF-CEM) of the same compound?
**A.** The GI50 was 48.2 µM (inactive).

**Q.** What about the GI50 (HCT-116) of the same compound?
**A.** The GI50 was 54.3 µM (inactive).

**Q.** And the GI50 (A498)?
**A.** The GI50 was 22.3 µM (inactive).

**Q.** What about the GI50 (UACC-257) of the same compound?
**A.** Its GI50 is > 100 µM (inactive).

**Q.** And the GI50 (PC-3)?
**A.** The GI50 was 48.1 µM (inactive).

**Q.** What about the GI50 (DU-145) of the same compound?
**A.** The GI50 was > 100 µM (inactive).

**Q.** And the GI50 (MOLT-4)?
**A.** Its GI50 is 95.7 µM (inactive).

**Q.** And the GI50 (SNB-19)?
**A.** The GI50 was 83.8 µM (inactive).

**Q.** What about the GI50 (BT-549) of the same compound?
**A.** Its GI50 is 97.3 µM (inactive).

**Q.** What about the GI50 (HCT-15) of the same compound?
**A.** Its GI50 is 91 µM.

**Q.** And the GI50 (NCI-H226)?
**A.** The GI50 was 60.7 µM (inactive).

**Q.** And the GI50 (SF-539)?
**A.** The GI50 was > 100 µM (inactive).

**Q.** What about the GI50 (HOP-92) of the same compound?
**A.** The GI50 was 42.8 µM (inactive).

**Q.** What about the GI50 (NCI-H460) of the same compound?
**A.** Its GI50 is 45.6 µM (inactive).

**Q.** And the GI50 (NCI/ADR-RES)?
**A.** The GI50 was 37.8 µM (inactive).

**Q.** And the GI50 (SK-MEL-28)?
**A.** The GI50 was > 100 µM (inactive).

**Q.** And the GI50 (OVCAR-4)?
**A.** The GI50 was 34.8 µM (inactive).

**Q.** What about the GI50 (SK-MEL-2) of the same compound?
**A.** Its GI50 is 40.2 µM (inactive).

**Q.** What about the GI50 (SW-620) of the same compound?
**A.** The GI50 was > 100 µM (inactive).

**Q.** What about the GI50 (OVCAR-5) of the same compound?
**A.** Its GI50 is > 100 µM (inactive).

**Q.** And the GI50 (786-0)?
**A.** The GI50 was 74.1 µM (inactive).

**Q.** What about the GI50 (RXF 393) of the same compound?
**A.** Its GI50 is > 100 µM (inactive).

**Q.** What about the GI50 (A549) of the same compound?
**A.** The GI50 was 62.1 µM (inactive).

**Q.** What about the GI50 (KM12) of the same compound?
**A.** The GI50 was 98.9 µM (inactive).

**Q.** Which results are given for `COc1ccc2c(C(=O)c3cn(CCN4CCOCC4)c4ccccc34)cccc2c1`?
**A.** GI50 (UO-31): > 32 µM (inactive); GI50 (SNB-75): 88.5 µM (inactive); GI50 (IGROV-1): > 91 µM (inactive); GI50 (SN12C): > 71.4 µM (inactive); GI50 (MDA-MB-231): > 100 µM (inactive); GI50 (SF-295): 5.6 µM (inactive); GI50 (HOP-62): > 22 µM (inactive); GI50 (SR): 47.5 µM (inactive); GI50 (MDA-N): 37.8 µM (inactive); GI50 (SK-OV-3): 4.22 µM (inactive); GI50 (NCI-H23): > 100 µM (inactive); GI50 (OVCAR-8): 43 µM (inactive); GI50 (HCC 2998): 41.7 µM (inactive); GI50 (K562): 36.6 µM (inactive); GI50 (MCF7): 5.01 µM (inactive); GI50 (SK-MEL-5): 60 µM (inactive); GI50 (MDA-MB-435): 8.26 µM (inactive); GI50 (SF-268): > 80.2 µM (inactive); GI50 (UACC-62): > 29.6 µM (inactive); GI50 (COLO 205): 58.9 µM (inactive); GI50 (CAKI-1): > 46 µM (inactive); GI50 (EKVX): > 48.2 µM (inactive); GI50 (T47D): 38 µM (inactive); GI50 (OVCAR-3): 13.6 µM (inactive); GI50 (U-251): 7.33 µM (inactive); GI50 (TK-10): > 100 µM (inactive); GI50 (ACHN): > 96.4 µM (inactive); GI50 (NCI-H522): 6.65 µM (inactive); GI50 (M14): > 31.1 µM (inactive); GI50 (Malme-3M): 15.8 µM (inactive); GI50 (LOX IMVI): 22.3 µM (inactive); GI50 (RPMI-8226): 21.2 µM (inactive); GI50 (CCRF-CEM): 4.45 µM (inactive); GI50 (HCT-116): 27.2 µM (inactive); GI50 (A498): > 100 µM (inactive); GI50 (UACC-257): 75.9 µM (inactive); GI50 (PC-3): 30.8 µM (inactive); GI50 (DU-145): > 23.6 µM (inactive); GI50 (HT-29): 53.6 µM (inactive); GI50 (MOLT-4): 15.1 µM (inactive); GI50 (BT-549): > 95.5 µM (inactive); GI50 (HCT-15): 51.8 µM; GI50 (NCI-H226): > 100 µM (inactive); GI50 (SF-539): > 80 µM (inactive); GI50 (HOP-92): > 100 µM (inactive); GI50 (NCI-H460): 4.65 µM (inactive); GI50 (NCI/ADR-RES): > 34.4 µM (inactive); GI50 (SK-MEL-28): > 62.4 µM (inactive); GI50 (OVCAR-4): 12.6 µM (inactive); GI50 (SK-MEL-2): > 100 µM (inactive); GI50 (SW-620): 31 µM (inactive); GI50 (OVCAR-5): > 100 µM (inactive); GI50 (786-0): > 20.8 µM (inactive); GI50 (RXF 393): > 67.6 µM (inactive); GI50 (HL-60): 18.3 µM (inactive); GI50 (A549): 6.76 µM (inactive); GI50 (KM12): 3.95 µM (inactive)
